From patent US12077503B2, “Substituted cyclic amides and their use as herbicides” (FMC CORPORATION, priority 2015, dated 2024)

Key:
Assay type in all cases: in vivo
[1] = system: ragweed (common ragweed, Ambrosia elatior); assay: Test A postemergence; conditions: Ambrosia artemisiifolia, post-emergence, 240 h, read-out: Ragweed plant response rating (0 to 100 scale)
Summary of the method: (§1)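 Compounds were formulated in a non-phytotoxic solvent mixture with surfactant and applied as a preemergence directed soil spray after seeding, or sprayed postemergence over plants 2 to 10 cm tall at the one- to two-leaf stage. Evaluation after about 10 d compared treated with untreated controls, using a scale from 0 (no effect) to 100 (complete control).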

corn (Zea mays) = assay: Test A postemergence; conditions: Zea mays, post-emergence, 240 h, read-out: Corn plant response rating (0 to 100 scale)
Summary of the method: as §1

[2] = system: Galium (catchweed bedstraw, Galium aparine); assay: Test A postemergence; conditions: Galium, post-emergence, 240 h, read-out: Galium plant response rating (0 to 100 scale)
Summary of the method: as §1

[3] = system: pigweed (Amaranthus retroflexus); assay: Test A postemergence; conditions: Amaranthus retroflexus, post-emergence, 240 h, read-out: Pigweed plant response rating (0 to 100 scale)
Summary of the method: as §1

[4] = system: barnyardgrass (Echinochloa crus-galli); assay: Test A postemergence; conditions: Echinochloa crus-galli, post-emergence, 240 h, read-out: Barnyardgrass plant response rating (0 to 100 scale)
Summary of the method: as §1

[5] = system: giant foxtail (Setaria faberii); assay: Test A postemergence; conditions: Setaria faberi, post-emergence, 240 h, read-out: Foxtail, Giant plant response rating (0 to 100 scale)
Summary of the method: as §1

[6] = system: wheat (Triticum aestivum); assay: Test A postemergence; conditions: Triticum aestivum, post-emergence, 240 h, read-out: Wheat plant response rating (0 to 100 scale)
Summary of the method: as §1

Kochia (Kochia scoparia) [7] = assay: Test A postemergence; conditions: Bassia scoparia, post-emergence, 240 h, read-out: Kochia plant response rating (0 to 100 scale)
Summary of the method: as §1

[8] = system: ryegrass, Italian (Italian ryegrass, Lolium multiflorum); assay: Test A postemergence; conditions: Lolium multiflorum, post-emergence, 240 h, read-out: Ryegrass, Italian plant response rating (0 to 100 scale)
Summary of the method: as §1

[9] = system: blackgrass (Alopecurus myosuroides); assay: Test A postemergence; conditions: Alopecurus myosuroides, post-emergence, 240 h, read-out: Blackgrass plant response rating (0 to 100 scale)
Summary of the method: as §1

[10] = system: ragweed (common ragweed, Ambrosia elatior); assay: Test A preemergence; conditions: Ambrosia artemisiifolia, pre-emergence, 240 h, 0 to 100 scale where 0 is no effect and 100 is complete control, read-out: Ragweed plant response rating
Summary of the method: as §1

[11] = system: pigweed (Amaranthus retroflexus); assay: Test A preemergence; conditions: Amaranthus retroflexus, pre-emergence, 240 h, 0 to 100 scale where 0 is no effect and 100 is complete control, read-out: Pigweed plant response rating
[12] = system: barnyardgrass (Echinochloa crus-galli); assay: Test A preemergence; conditions: Echinochloa crus-galli, pre-emergence, 240 h, 0 to 100 scale where 0 is no effect and 100 is complete control, read-out: Barnyardgrass plant response rating
Summary of the method: as §1

[13] = system: giant foxtail (Setaria faberii); assay: Test A preemergence; conditions: Setaria faberi, pre-emergence, 240 h, 0 to 100 scale where 0 is no effect and 100 is complete control, read-out: Foxtail, Giant plant response rating
Summary of the method: as §1

Kochia (Kochia scoparia) [14] = assay: Test A preemergence; conditions: Bassia scoparia, pre-emergence, 240 h, 0 to 100 scale where 0 is no effect and 100 is complete control, read-out: Kochia plant response rating
Summary of the method: as §1

[15] = system: ryegrass, Italian (Italian ryegrass, Lolium multiflorum); assay: Test A preemergence; conditions: Lolium multiflorum, pre-emergence, 240 h, 0 to 100 scale where 0 is no effect and 100 is complete control, read-out: Ryegrass, Italian plant response rating
Summary of the method: as §1

[16] = system: ducksalad (Heteranthera limosa); assay: Test B flooded paddy test; conditions: Heteranthera limosa, 250 g ai/ha, Flood; 0 to 100 scale where 0 is no effect and 100 is complete control; read-out: Ducksalad plant response rating
Summary of the method: (§2)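 Greenhouse paddy pots with 2-leaf stage plants received compound by direct addition to floodwater 3 cm deep, kept at that level. Scored visually at 13–15 d versus controls (0 no effect; 100 complete control).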

rice (Oryra sativa) = assay: Test B flooded paddy test; conditions: Oryza sativa, 250 g ai/ha, Flood; 0 to 100 scale where 0 is no effect and 100 is complete control; read-out: Rice plant response rating
Summary of the method: as §2

[17] = system: barnyardgrass (Echinochloa crus-galli); assay: Test B flooded paddy test; conditions: Echinochloa crus-galli, 250 g ai/ha, Flood; 0 to 100 scale where 0 is no effect and 100 is complete control; read-out: Barnyardgrass plant response rating
Summary of the method: as §2

[18] = system: sedge, umbrella (small-flower umbrella sedge, Cyperus difformis); assay: Test B flooded paddy test; conditions: Cyperus difformis, 250 g ai/ha, Flood; 0 to 100 scale where 0 is no effect and 100 is complete control; read-out: Sedge, Umbrella plant response rating
Summary of the method: as §2

[19] = 125 g ai/ha, postemergence, visual injury vs untreated controls after approx. 10 d, 0 = no effect, 100 = complete control
[20] = Postemergence, 31 g ai/ha, 0 is no effect, 100 is complete control
[21] = 125 g ai/ha, preemergence, visual injury rating, approximately 10 d

Cc1ccc([C@H]2CN(C)C(=O)[C@@H]2C(=O)Nc2cccc(F)c2C#N)cc1 [Compound 1189] showed a pest or weed control at 125 g/ha [1, 19] of 40%, a pest or weed control at 31 g/ha [1, 20] of 0% and a plant injury at 125 g/ha (corn (Zea mays); [19]) of 20%. It also gave a plant injury at 31 g/ha (corn (Zea mays); [20]) of 0%, a pest or weed control at 125 g/ha [2, 19] of 50% and a pest or weed control at 31 g/ha [2, 20] of 30%. The pest or weed control at 125 g/ha [3, 19] was 0%, the pest or weed control at 31 g/ha [3, 20] was 0% and the pest or weed control at 125 g/ha [4, 19] was 100%. It also gave a pest or weed control at 31 g/ha [4, 20] of 70%, a pest or weed control at 125 g/ha [5, 19] of 80% and a pest or weed control at 31 g/ha [5, 20] of 70%. The plant injury at 125 g/ha [6, 19] was 20%, the plant injury at 31 g/ha [6, 20] was 0% and the pest or weed control at 125 g/ha (Kochia (Kochia scoparia) [7]; [19]) was 20%. For the same compound, the pest or weed control at 31 g/ha (Kochia (Kochia scoparia) [7]; [20]) was 0%, the pest or weed control at 125 g/ha [8, 19] was 20% and the pest or weed control at 31 g/ha [8, 20] was 0%. It also gave a pest or weed control at 125 g/ha [9, 19] of 40%, a pest or weed control at 31 g/ha [9, 20] of 20% and a pest or weed control at 31 g/ha ([10]; 31 g ai/ha, Preemergence) of 0%. The pest or weed control at 125 g/ha [10, 21] was 50%, the pest or weed control at 31 g/ha ([11]; 31 g ai/ha, Preemergence) was 0% and the pest or weed control at 125 g/ha [11, 21] was 40%. For the same compound, the pest or weed control at 31 g/ha ([12]; 31 g ai/ha, Preemergence) was 90%, the pest or weed control at 125 g/ha [12, 21] was 100% and the pest or weed control at 31 g/ha ([13]; 31 g ai/ha, Preemergence) was 90%. It also gave a pest or weed control at 125 g/ha [13, 21] of 100%, a pest or weed control at 31 g/ha (Kochia (Kochia scoparia) [14]; 31 g ai/ha, Preemergence) of 40% and a pest or weed control at 125 g/ha (Kochia (Kochia scoparia) [14]; [21]) of 70%. It also gave a pest or weed control at 31 g/ha ([15]; 31 g ai/ha, Preemergence) of 20%, a pest or weed control at 125 g/ha [15, 21] of 60% and a pest or weed control at 250 g/ha [16] of 100%. For the same compound, the pest or weed control at 250 g/ha (rice (Oryra sativa)) was 15%, the pest or weed control at 250 g/ha [17] was 75% and the pest or weed control at 250 g/ha [18] was 0%.
